Among the data in US20240165113A1, “METHODS OF TREATMENT FOR LEUKEMIA” (DNA SEQ 2, Inc., priority 2021, published 2024) are Kd values, retold here.

As usually defined, the Kd is the free concentration of one partner at which half of the binding sites on the other are occupied at equilibrium, for simple one-to-one binding.

Where two headings read alike, the source gives them in different places.

The target of the assay is T1, unphosphorylated ABL1(T315I)(229-499) (Homo sapiens, UniProt P00519, T315I).
T1 construct: The recombinant ABL1(T315I) (isoform 1a) residues 229-499 protein was designed with an N-terminal 10×His tag; made in house; host or cells: E. coli (co-expressed with YopH phosphatase and pGro7 chaperone)
T1 sequence (P00519 229-499 T315I): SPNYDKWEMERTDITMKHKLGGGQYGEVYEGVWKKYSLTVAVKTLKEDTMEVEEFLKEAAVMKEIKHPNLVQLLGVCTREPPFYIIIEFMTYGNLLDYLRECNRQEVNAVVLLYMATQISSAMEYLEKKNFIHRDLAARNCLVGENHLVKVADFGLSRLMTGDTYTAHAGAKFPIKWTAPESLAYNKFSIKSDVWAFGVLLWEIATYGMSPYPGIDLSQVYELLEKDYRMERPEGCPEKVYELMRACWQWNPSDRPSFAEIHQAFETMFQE
The experiment in a line: SPR binding to unphosphorylated ABL1(T315I)(229-499). Particulars: Ni-NTA capture of 10xHis-tag. (In general: In SPR one partner is held on a chip, and binding of the other changes the refractive index at the surface.)

On to `Nc1nc(N)c(N=O)c(OCC2CCCCC2)n1` [A-0001, 6-Cyclohexylmethyloxy-5-nitroso-pyrimidine-2,4-diamine], for which the Kd is, setting by setting: (HBST buffer, read-out: Unphosphorylated ABL1(T315I)(229-499) in HBST buffer KD) 2 µM; (PBST buffer, read-out: Unphosphorylated ABL1(T315I)(229-499) in PBST buffer KD) 5 µM.
